From paper PMC2834666, “An enhancer peptide for membrane-disrupting antimicrobial peptides” (BMC Microbiology, 2010)
Values after ≈ are worked out from the molar mass of the structure shown. Bridge positions count the residues as written; N and C are the ends. Square brackets hold non-standard residues; d marks the D form. Peptide text beside a SMILES is read from it. * marks the point of attachment. X1 = CC[C@H](C)CCCCC(=O)*; Dab = NCC[C@H](N)C(=O)O

Experiments:
Format in all cases: cell-based
[1] = tested on: Staphylococcus aureus IFO12732; test: microbe, parasite or virus in culture; conditions: 10 mM Tris/HCl pH 7.5, 2 h incubation, colony count; for MBC: Staphylococcus aureus, IFO12732
Description: (§1) Microbicidal assay was performed as previously described. Briefly, each microbial strain in the mid-exponential phase was suspended in 10 mM Tris/HCl, pH 7.5. The microbial suspension was mixed with antimicrobials in the presence or absense of NP4P. After 2 h incubation, the suspension was diluted 1,000 times and inoculated on to plates of IFO702 medium. The number of colonies were counted, and a plot of peptide concentration vs colony number was created.

Escherichia coli JM109 = conditions: for MBC, NP4P-: absence of NP4P, 10 mM Tris/HCl pH 7.5, 2 h incubation, colony count
Description: as §1, with “Briefly, each microbial strain in the mid-exponential phase was suspended in 10 mM Tris/HCl, pH 7.5.” left out

[2] = tested on: Salmonella typhimurium IFO13245; conditions: absence of NP4P; 10 mM Tris/HCl pH 7.5, 2 h incubation, colony count
Description: as §1

[3] = tested on: Serratia marcescens IFO3736; conditions: absence of NP4P; 10 mM Tris/HCl pH 7.5, 2 h incubation, colony count
Description: as §1

[4] = tested on: Pseudomonas aeruginosa IFO3899; conditions: absence of NP4P; 10 mM Tris/HCl pH 7.5, 2 h incubation, colony count
Description: as §1

SMILES	MBC ([1]; absence of NP4P) [µg/mL]	MBC ([1]; presence of 20 μg/mL NP4P) [µg/mL]	MBC, NP4P- ([1]; absence of NP4P) [µg/mL]	MBC, NP4P- (Escherichia coli JM109) [µg/mL]	other results
CC1(C)S[C@@H]2[C@H](NC(=O)[C@H](N)c3ccccc3)C(=O)N2[C@H]1C(=O)O [Ampicillin]	250 (≈ 715 µM)	250	–	–	–
CCN1CCN(c2cc3c(cc2F)c(=O)c(C(=O)O)cn3C2CC2)CC1 [Enrofloxacin]	0.25 (≈ 0.696 µM)	0.25	–	–	–
CC[C@H](C)[C@H](N)C(=O)N[C@@H](CC(C)C)C(=O)N1CCC[C@H]1C(=O)N[C@@H](Cc1c[nH]c2ccccc12)C(=O)N[C@@H](CCCCN)C(=O)N[C@@H](Cc1c[nH]c2ccccc12)C(=O)N1CCC[C@H]1C(=O)N[C@@H](Cc1c[nH]c2ccccc12)C(=O)N[C@@H](Cc1c[nH]c2ccccc12)C(=O)N1CCC[C@H]1C(=O)N[C@@H](Cc1c[nH]c2ccccc12)C(=O)N[C@@H](CCCNC(=N)N)C(=O)N[C@@H](CCCNC(=N)N)C(N)=O [Indolicidin]	–	–	10 (≈ 5.25 µM)	10 (≈ 5.25 µM)	–
NC[C@H]1O[C@H](O[C@H]2[C@H](O)[C@@H](O[C@H]3O[C@H](CO)[C@@H](O)[C@H](N)[C@H]3O)[C@H](N)C[C@@H]2N)[C@H](O)[C@@H](O)[C@@H]1O [Kanamycin]	–	–	3 (≈ 6.19 µM)	–	MBC, NP4P+ ([1]; presence of 20 μg/mL NP4P): 3 µg/mL
CC[C@H](C)CCCCC(=O)N[C@@H](CCN)C(=O)N[C@H](C(=O)N[C@@H](CCN)C(=O)N[C@H]1CCNC(=O)[C@H]([C@@H](C)O)NC(=O)[C@H](CCN)NC(=O)[C@H](CCN)NC(=O)[C@H](CC(C)C)NC(=O)[C@@H](Cc2ccccc2)NC(=O)[C@H](CCN)NC1=O)[C@@H](C)O [Polymyxin B] (X1-[Dab]T[Dab][Dab][Dab][dF]L[Dab][Dab]T; lactam 4-C (inferred); N-terminus assumed)	–	–	–	3 (≈ 2.49 µM)	shift of bactericidal dose-effect curve to lower concentration (Escherichia coli JM109; in the presence of 100 μg/mL NP4P, 10 mM Tris-HCl, pH 7.4): ~10 times lower concentration; MBC, NP4P- [2]: 5 µg/mL (≈ 4.15 µM); MBC, NP4P- [3]: 5 µg/mL (≈ 4.15 µM); MBC, NP4P- [4]: 5 µg/mL (≈ 4.15 µM)
